Data from patent US7279502B2, “Polyamine analog conjugates and quinone conjugates as therapies for cancers and prostate diseases” (Cellgate, Inc., priority 1999, dated 2007).
Where two headings read alike, the source gives them in different places.

Experiments:
[1] = system: prostate xenograft tumors; settings: nude mice; cited from earlier work
[2] = Creaven et al. (1997); cited from earlier work
[3] = rats, Kanter et al. (1994); cited from earlier work
[4] = system: A549 human large cell hung carcinoma; settings: constant infusion via Alzet pump delivery for 5 days; cited from earlier work
[5] = in one study; cited from earlier work
[6] = system: human prostate adenocarcinoma cell line PC-3; experiment: MTT assay, quinones, PC-3; type: cell-based; settings: Table 3, treatment time not given in cell, read-out: ID50 PC-3
Method: (§1) Cell Culture: The human lung adenocarcinoma cell line, A549, and human prostatic cancer cell line, DUPRO, were a gift from Dr. M. Eileen Dolan, University of Chicago, Department of Medicine. A549 was grown in Ham's F-12K medium (Fisher Scientific, Itasca, Ill.) supplemented with 10% fetal bovine serum and 2 mM L-glutamine. DUPRO was grown in RPMI-1640 supplemented with 10% fetal bovine serum. The human colon carcinoma cell line, HT29, and the human breast carcinoma cell line, MCF7, were obtained from the American Type Culture Collection, Rockville, Md. HT29 cells were grown in McCoy's 5A medium (Gibco, BRL, Gaithersburg, Md.) supplemented with 10% fetal bovine serum. MCF7 cells were grown in Richter's Improved Modified Eagle's medium supplemented with 10% fetal bovine serum and 2.2 g/L sodium bicarbonate. The human prostate adenocarcinoma cell lines, LNCAP, PC-3 and DU145, were gifts from Dr. George Wilding, University of Wisconsin Comprehensive Cancer Center and the Department of Medicine, and were grown in Dulbecco's Modified Eagle's medium supplemented with a 5% fetal bovine serum. The malignant glioma cell line, U251MG NCI was obtained from the brain tumor tissue bank at the University of California, San Francisco Department of Neurosurgery, and was grown in Dulbecco's Modified Eagle's medium supplemented wth 10% fetal bovine serum. DUPRO, A549 and MCF7 cells were grown in 100 units/mL penicillin and 100 μg/mL streptomycin. HT29 and U251MG NCI cells were grown in 50 μg/mL gentamycin. LNCAP, PC-3 and DU145 cells were maintained in 1% antibiotic antimycotic solution (Sigma, St. Louis, Mo.). All cell cultures were maintained at 37° C. in 5% CO2/95% humidified air.
(§2) MTT assay. Exponentially growing monolayer cells were plated in 96 well plates at a density of 500 cells/well and allowed to grow for 24 h. Serially diluted drug solutions were added such that the final drug concentrations in the treatment media were between 0 and 35 μM. Cells were incubated with drug at either 4 hr or 72 hr. After 4 hr and 72 hr treatment, drugs were removed, fresh media (without) drug (100 uL) was added and cells were incubated for 6 days. After six days, 25 μL of a Dulbecco's phosphate-buffered saline solution containing 5 mg/mL of MTT (Thiazolyl blue) (Sigma) was added to each well and incubated for 4 h at 37° C. Then 100 μL of lysis buffer (20% sodium dodecyl sulfate, 50% N,N-dimethylformamide and 0.8% acetic acid, pH 4.7) was added to each well and incubated for an additional 22 h. A microplate reader (E max, Molecular Devices, Sunnyvale, Calif.) set at 570 nm was used to determine the optical density. Results were plotted as a ratio of the optical density in drug treated wells to the optical density in wells treated with vehicle alone. Plotting and estimation of ID50 values were accomplished with manufacturer supplied software. The data is presented below in Tables 3, 4, 5 and 6.

[7] = system: human prostatic cancer cell line, DUPRO; experiment: MTT assay, quinones, DUPRO; type: cell-based; settings: Table 3, treatment time not given in cell, read-out: ID50 DUPRO
Method: as §1
(§3) MTT assay. Exponentially growing monolayer cells were plated in 96 well plates at a density of 500 cells/well and allowed to grow for 24 h. Serially diluted drug solutions were added such that the final drug concentrations in the treatment media were between 0 and 35 μM. […] A microplate reader (E max, Molecular Devices, Sunnyvale, Calif.) set at 570 nm was used to determine the optical density. […]

[8] = system: human prostate adenocarcinoma cell line DU145; experiment: MTT assay, quinones, DU145; type: cell-based; settings: DU-145, Table 3, treatment time not given in cell, read-out: ID50 DU145
Method: as §1, §3

[9] = system: malignant glioma cell line, U251MG NCI; experiment: MTT assay, quinones, U251MG NCI; type: cell-based, human; settings: read-out: ID50 Brain U251-MG
Method: as §1, with “The malignant glioma cell line, U251MG NCI was obtained from the brain tumor tissue bank at the University of California, San Francisco Department of Neurosurgery, and was grown in Dulbecco's Modified Eagle's medium supplemented wth 10% fetal bovine serum. DUPRO, A549 and MCF7 cells were grown in 100 units/mL penicillin and 100 μg/mL streptomycin. HT29 and U251MG NCI cells were grown in 50 μg/mL gentamycin. LNCAP, PC-3 and DU145 cells were maintained in 1% antibiotic antimycotic solution (Sigma, St. Louis, Mo.). All cell cultures were maintained at 37° C. in 5% CO2/95% humidified air.” left out
MTT assay. […] A microplate reader (E max, Molecular Devices, Sunnyvale, Calif.) set at 570 nm was used to determine the optical density. […]

[10] = system: human breast carcinoma cell line, MCF7; experiment: MTT assay, quinones, MCF7; type: cell-based; settings: Table 4, treatment time not given in cell, read-out: ID50 Breast MCF7
Method: as §1, §2

[11] = system: human prostate cancer cells PC3; experiment: MTT assay, polyamine analogs, PC3; type: cell-based; settings: PC-3, survival of cultured PC3 cells, figure legends, read-out: ED50 (the source's name)
Method: (§4) Human breast cancer cell line MCF7 was grown in Richter's Improved Modified Eagle's Medium supplemented with 10% fetal bovine serum (FBS) and 2.2 g/L sodium bicarbonate. Human brain tumor cell line U251 MG-NCI was grown in Dulbecco's Modified Eagle's Medium supplemented with 10% FBS. Human lung cancer cell line A549 was grown in Ham's F-12K medium (Cellgro, Mediatech, Inc., VA), supplemented with 10% FBS and 2 mM L-glutamine. Human colon cancer cell line HT29 was cultured in McCoy's 5A medium (Gibco, BRL, Gaithersburg, Md.) supplemented with 10% FBS. Human prostate cancer cell lines PC-3, LNCAP and DuPro were grown in RPMI 1640 Medium (Cellgro, Mediatech, Inc., VA) supplemented with 10% FBS. Another human prostate cancer cell line DU145 was grown in Dulbecco's Modified Eagle's Medium (Gibco, BRL, Gaithersburg, Md.) supplemented with 5% FBS. The A549, MCF7, PC3, LNCAP and DuPro cell lines were cultured in 100 units/mL penicillin and 100 μg/mL streptomycin. HT29 and U251MG cell lines were grown in 50 μg/mL gentamycin (Gibco, BRL, Gaithersburg, Md.). DU145 cell line was maintained in 1% antibitic-antimycotic solution (Sigma, St. Louis, Mo.). The cell cultures were maintained at 37° C. in 5% CO2/95% humidified air. DuPro cells were obtained from M. Eileen Dolan, University of Chicago. All other cells are available from the American Type Culture Collection, Rockville, Md.
(§5) A conventional MTT assay was used to evaluate percent cell survival. Exponentially growing monolayer cells were plated in 96-well plates at a density of 500 cells per well and allowed to grow for 24 hours. Serial dilutions of the drugs were added to the wells. Six days after drug treatment, 25 μl of MTT solution (5 mg/ml) was added to each well and incubated for 4 hours at 37° C. Then 100 μl of lysis buffer (20% sodium dodecyl sulfate, 50% DMF, and 0.8% acetic acid, pH 4.7) was added to each well and incubated for an additional 22 hours. A microplate reader (“EMAX”-brand, Molecular Devices, Sunnyvale, Calif.) set at 570 nm was used to determine the optical density of the cultures. Results are expressed as a ratio of the optical density in drug-treated wells to the optical density in wells treated with vehicle only.

[12] = system: human prostate cancer cells DU145; experiment: MTT assay, polyamine analogs, DU145; type: cell-based; settings: Homo sapiens
Method: as §4, §5

[13] = system: human prostate cancer cells DUPRO; experiment: MTT assay, polyamine analogs, DUPRO; type: cell-based; settings: Homo sapiens, DuPro
Method: as §4, §5

[14] = system: human prostate cancer cells LNCAP; experiment: MTT assay, polyamine analogs, LNCAP; type: cell-based; settings: Homo sapiens, LNCaP, survival of cultured LNCAP cells, figure legends; read-out: ED50 (the source's name)
Method: as §4
A conventional MTT assay was used to evaluate percent cell survival. Exponentially growing monolayer cells were plated in 96-well plates at a density of 500 cells per well and allowed to grow for 24 hours. Serial dilutions of the drugs were added to the wells. Six days after drug treatment, 25 μl of MTT solution (5 mg/ml) was added to each well and incubated for 4 hours at 37° C. […] A microplate reader (“EMAX”-brand, Molecular Devices, Sunnyvale, Calif.) set at 570 nm was used to determine the optical density of the cultures. Results are expressed as a ratio of the optical density in drug-treated wells to the optical density in wells treated with vehicle only.

[15] = system: human colon cancer cells HT29; experiment: MTT assay, polyamine analogs, HT29; type: cell-based
Method: (§6) As shown in Table 2 and FIGS. 1-32, several novel conformationally restricted polyamine analogs were tested for anti-proliferative properties against cancer cells.
as §4, §5

[16] = system: human lung cancer cells A549; experiment: MTT assay, polyamine analogs, A549; type: cell-based; settings: Homo sapiens
Method: as §6, §4, §5

[17] = system: human breast cancer cells MCF7; experiment: MTT assay, polyamine analogs, MCF7; type: cell-based
Method: as §6, §4, §5

[18] = system: human brain tumor cells U251 MG NCI; experiment: MTT assay, polyamine analogs, U251 MG NCI; type: cell-based
Method: as §4, §5

tumor cell lines = experiment: In vitro anti-proliferative testing, summary statements; type: cell-based, human; settings: FIGS. 57-59: PC3, DUPRO, LNCAP
Method: as §5

CCNCCCNCCCNCCCNCC [BE-333, N1,N11-diethylnorspermine]
inhibition of prostate xenograft tumors [1]: particularly effective in inhibiting prostate xenograft tumors in nude mice
side effects [2]: headache, nausea and vomiting, unilateral weakness, dysphagia, dysarthria, numbness, paresthesias, and ataxia
toxicity on administration [3]: labored breathing, convulsive movements and acute death
anti-tumor activity, effect of schedule [4]: dramatically improves the anti-tumor activity

CCNCCCNCCCCCCCNCCCNCC [BE-373]
inhibition of prostate xenograft tumors [1]: particularly effective in inhibiting prostate xenograft tumors in nude mice

CCNCCCCNCCCCNCCCCNCCCCNCC [BE-4444, 1,19-bis(ethylamino)-5,10,15-triazanonadecane]
inhibition of prostate xenograft tumors [1]: particularly effective in inhibiting prostate xenograft tumors in nude mice

CC(/C=N/NC(=N)N)=N\NC(=N)N [MGBG, methylglyoxal-bis-guanylhydrazone]
side effects, drug deaths [5]: drug deaths occurred in over half of treated animals

O=C1C=C(OCCCCCCO)c2ccccc2C1=O [SL-11051]
IC50 [6]: 17100 nM
IC50 [7]: 19300 nM
IC50 [8]: 11200 nM

CC1(C)CCC2=C(O1)c1ccccc1C(=O)C2=O [SL-11058]
IC50 ([9]; Table 6, non-quinone compounds): > 31200 nM

O=C1C=C(OCCCCCNC2CCCCC2)c2ccccc2C1=O [SL-11060]
IC50 [10]: 17200 nM
IC50 ([9]; Homo sapiens, U-251, Table 4, treatment time not given in cell): > 31200 nM

O=C1C=C(OCCCCCCCc2ccc(Nc3c4ccccc4nc4ccccc34)cc2)c2ccccc2C1=O [SL-11064, Quinone-anilinoacridine]
IC50 [6]: 700 nM
IC50 [7]: 2200 nM
IC50 [8]: 130 nM

CCNC/C=C\CNC/C=C\CNC/C=C\CNCC [SL-11108]
EC50 [11]: 2200 nM
IC50 ([12]; DU-145, 144 h, read-out: concentration needed for 50% growth inhibition (ID50) DU-145, Table 2, MTT six days after drug treatment): 130 nM
EC50 ([12]; DU-145, survival of cultured DU145 cells, figure legends, read-out: ED50 (the source's name)): 130 nM
IC50 ([13]; 144 h, read-out: concentration needed for 50% growth inhibition (ID50) DUPRO, Table 2, MTT six days after drug treatment): 980 nM
EC50 ([13]; survival of cultured DUPRO cells, figure legends, read-out: ED50 (the source's name)): 980 nM
EC50 [14]: 7700 nM
IC50 ([15]; HT-29, 144 h, read-out: concentration needed for 50% growth inhibition (ID50) HT-29, Table 2, MTT six days after drug treatment): 2000 nM
EC50 ([15]; HT-29, survival of cultured HT29 cells, figure legends, read-out: ED50 (the source's name)): 2000 nM
IC50 ([16]; A549, 144 h, read-out: concentration needed for 50% growth inhibition (ID50) A549, Table 2, MTT six days after drug treatment): > 31200 nM
EC50 ([16]; A549, survival of cultured A549 cells, figure legends, read-out: ED50 (the source's name)): > 31200 nM
IC50 ([17]; MCF7, 144 h, read-out: concentration needed for 50% growth inhibition (ID50) MCF7, Table 2, MTT six days after drug treatment): > 31200 nM
EC50 ([17]; MCF7, survival of cultured MCF7 cells, figure legends, read-out: ED50 (the source's name)): > 31200 nM
IC50 ([18]; U-251, 144 h, read-out: concentration needed for 50% growth inhibition (ID50) U251MG, Table 2, MTT six days after drug treatment): 2000 nM
EC50 ([18]; U-251, survival of cultured U251 MG NCI cells, figure legends, read-out: ED50 (the source's name)): 2000 nM

O=C1C=C(CCCCCCCCc2ccc(Nc3c4ccccc4nc4ccccc34)cc2)c2ccccc2C1=O [SL-11125, Quinone-acridine]
IC50 [6]: 5900 nM
IC50 [7]: 7900 nM
IC50 [8]: 130 nM
IC50 [10]: 5100 nM

CCNCCCCNCCCCNCCCCNCCCCNCCO [SL-11141]
effectiveness against tumor cell lines in vitro (tumor cell lines): display effectiveness against tumor cell lines in vitro
